Reference: patent publication US12637413B2, “Fatty acid amide hydrolase (FAAH) cleavable prodrugs of thyromimetics and combination with peripherally restricted FAAH inhibitors” (Autobahn Therapeutics, Inc., priority 2021, dated 2026)
Read-outs that look alike come from different tables or passages of the source.

Assays:
[1] = target: T1, recombinant human FAAH (rhFAAH) (Homo sapiens, UniProt O00519); test: FAAH substrate evaluation (acid metabolite formation); format: biochemical; settings: observed rate constant for acid metabolite formation; 0.5 ng/μL rhFAAH, 1 μM test compound, room temperature, 0-60 minutes
T1 construct: purchased Cayman Chemical (Ann Arbor, MI, USA)
T1 sequence (O00519 1-579): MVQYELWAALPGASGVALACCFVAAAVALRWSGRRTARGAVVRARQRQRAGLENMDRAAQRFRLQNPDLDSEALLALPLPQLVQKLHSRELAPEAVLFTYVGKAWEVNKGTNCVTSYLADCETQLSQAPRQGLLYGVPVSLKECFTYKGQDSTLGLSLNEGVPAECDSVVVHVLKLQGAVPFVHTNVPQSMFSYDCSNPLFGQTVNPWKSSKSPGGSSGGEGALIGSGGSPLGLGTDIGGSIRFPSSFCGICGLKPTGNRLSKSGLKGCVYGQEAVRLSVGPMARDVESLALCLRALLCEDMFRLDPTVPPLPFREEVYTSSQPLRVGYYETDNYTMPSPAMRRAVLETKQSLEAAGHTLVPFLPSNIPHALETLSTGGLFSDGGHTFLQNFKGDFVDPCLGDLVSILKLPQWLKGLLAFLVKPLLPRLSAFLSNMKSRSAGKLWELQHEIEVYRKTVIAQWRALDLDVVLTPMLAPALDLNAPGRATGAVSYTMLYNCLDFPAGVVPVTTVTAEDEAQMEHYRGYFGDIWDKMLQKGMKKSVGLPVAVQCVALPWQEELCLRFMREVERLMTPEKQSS
Description: Purified recombinant human FAAH (rhFAAH) was purchased from Cayman Chemical (Ann Arbor, MI, USA). The total volume for each incubation was 400 μL containing a final 0.5 ng/μL rhFAAH, 1 μM test compound, 1.25% ethanol or 1 μM PF-3845 (FAAH inhibitor), and 0.1% bovine serum albumin in Tris-EDTA buffer at pH 8.0). The positive control was LL-341001. The incubation was conducted at the room temperature. At 0, 5, 15, 30 and 60 minutes, an aliquot of 30 μL reaction mixtures was removed and mixed with 300 μL acetonitrile containing 5 ng/mL terfenadine and 10 ng/mL tolbutamide as internal standards to quench the reaction. The resulting mixture was centrifuged at 4000 rpm, 4° C. for 15 minutes, and 100 μL supernatant was ready for LC-MS/MS analysis to measure the formation of acid metabolite.
Acquity Ultra Performance LC system from Waters was used for sample analysis. The chromatography was performed on a reverse phase Kinetex 2.6 μm C18 column, 2.1×30 mm, 100 Å. The mobile phase A comprised of 0.1% formic acid in water and mobile phase B comprised of 0.1% formic acid in acetonitrile with a 2-min run time at the flow rate of 0.8 mL/min for the acid metabolite from positive control or a 1.5 min run time at the flow rate of 0.9 mL/min for the acid metabolite of test compounds. The mass spectrometer (API-5500 and API Q Trap 4000 Applied Biosystems/MDS SCIEX Instruments, Framingham, MA, USA) was operated under ESI positive or negative ion MRM mode.
The formation of acid metabolite was monitored and quantified using one calibration point of 1 μM. The observed rate constant (ke) for the acid metabolite formation was calculated by plotting the metabolite concentration versus time of incubation with the slope being ke and is shown in Table 1.

T3-regulated genes = test: gene expression in brain and liver after 7 days PO QD dosing; format: in vivo, Female C57BL/6 mice; settings: Mus musculus, PO QD 7 days, 4 or 8 h after last dose
Description: Female C57BL/6 mice (n=5/group), 6-8 weeks old, were acclimated to the study room for at least 3 days before dose administration in the studies. Mice were dosed at 5 mL/kg based on most recent body weight, collected once for the duration of the study. Based on most recent body weight, collected once for the duration of the study, mice were placed into weight-matched treatment dosing cohorts. Mice were given a single administration of PFI or vehicle orally (PO) daily (n=5/group) for 7 days at time=−1 hour. Following the PFI (100 μg/kg) or vehicle dose (10 mL/kg, p.o.), animals were given test article daily at time=0 hour. Test article administration one of eight dose levels (0.1, 0.3, 1, 3, 10, 30, 100 or 300 μg/kg) on Days 1-7 for a total of seven doses. Mice were dosed PO, QD for 7 days with (A) active metabolite or (B) prodrug alone; (C) prodrug+PFI (LL-650177) or (D) prodrug+GFI. […] RNA from samples harvested 4 hours after final dose was quantified using a hybridization-based in situ RNA quantification method (NanoString, Seattle, WA), as described below. RNA from samples harvested 8 hours after final dose was quantified using a hybridization-based in situ RNA quantification method (QuantiGene Plex), as described below. […]

For `CNC(=O)COc1cc(Cl)c(Cc2ccc(O)c(C(C)C)c2)c(Cl)c1` [Compound 1], the ke [1] was “A (ke is more than or equal to 0.1)”, the ED50 (T3-regulated genes; gene expression in brain, read-out: Brain (ED50 mg/kg)) was 0.044 mg/kg and the ED50 (T3-regulated genes; gene expression in liver, read-out: Liver (ED50 mg/kg)) was 0.0025 mg/kg.
